One assay has as its system cultured rice cells. The settings on record: culture in a pyroxasulfone-containing liquid medium; cited from earlier work.
Assay [1] has as its system wild-type Arabidopsis thaliana plant (Columbia-0). Kind of assay: Sensitivity of wild-type Arabidopsis thaliana to herbicides on MS agar medium. The assay is classed as in vivo. The settings on record: 22° C., 14 days. On the procedure: A medium was prepared as described below, so as to examine the pyroxasulfone resistance of the Arabidopsis thaliana plant comprising the TaQ8GTC0 gene introduced therein. At the outset, the Murashige-Skoog (MS) media (1 bag), thiamin hydrochloride (3 mg), nicotinic acid (5 mg), pyridoxin hydrochloride (0.5 mg), and sucrose (10 g) were added into a 1-liter beaker, a pH was adjusted to 5.7, the volume of the content was adjusted to 1 liter, and 8 g (0.8%) of agar was added. The resultant was autoclaved and cooled to room temperature, and pyroxasulfone (an acetone solution) was added thereto. A 30-ml fraction thereof was fractionated into a No. 2 square plate to prepare an MS medium containing pyroxasulfone at a given concentration.
Pyroxasulfone sensitivity of transgenic Arabidopsis thaliana plants was tested with the use of the medium prepared above as described below. A necessary amount of Arabidopsis thaliana dry seeds was agitated in 70% ethanol for 2 minutes and in hypochlorous acid containing 0.02% Triton-X-100 for 15 minutes, followed by washing with sterile water 10 times. Subsequently, the seeds were suspended in 1 ml of the autoclaved 0.1% agar solution, the suspension was thoroughly mixed to prepare a homogeneous solution, and a total of 30 seeds were each placed on the medium surface. […]

Another assay has as its system ZmQ9ZP61. In words: Pyroxasulfone metabolizing activity based on fatty acid content in cultured rice cells. In kind it is cell-based, maize. The following applies: cultured rice cells with ZmQ9ZP61 gene; 10^−7M or 10^−6M pyroxasulfone, liquid culture 14 to 17 days. On the procedure:
(§1) The transgenic cultured rice cells thus prepared were used for liquid culture in the presence of pyroxasulfone. Pyroxasulfone was added to the liquid medium as an acetone solution. The final acetone concentration was 0.1%. When liquid culture was carried out, cultured rice cells transformed with KLB-279 (a plasmid comprising Act1p (rice actin 1 promoter)::sGFP::NOSt incorporated into the MCS of PalSelect R-4) were designated as the control samples. Liquid culture was carried out as described below.
(§2) A bag of mixed salts for Murashige-Skoog medium (MS inorganic salts), 1 ml of 10 mg/ml thiamin hydrochloride, 1 ml of 5 mg/ml nicotinic acid, 1 ml of 10 mg/ml pyridoxine hydrochloride, 1 ml of 2 mg/ml glycine, 1 ml of 0.2 mg/ml 2,4-D, 30 g of sucrose, and 1 ml of 50 mg/ml myo-inositol were added into a 1-liter beaker, a pH was adjusted to 5.7, and the volume was precisely adjusted to 1,000 nil with the addition of distilled water, followed by autoclave. After 0.05 ml of pyroxasulfone was added to a 200-ml erlenmeyer flask containing 50 ml of the liquid medium, about 0.5 g of the control cultured rice cells proliferated in a solid medium of the same composition as described above further supplemented with 3 g of gellan gum and 0.25 μM BS or about 0.5 g of the transgenic cultured rice cells prepared as described above were added to the liquid medium, and culture was carried out for 14 to 17 days. After the completion of culture, the liquid medium was removed, and cultured rice cells were recovered.
(§3) One month after the transformation, cultured rice cells comprising the GST genes introduced therein were selected with the use of 0.25 μM bispyribac sodium (BS). Subsequently, the fresh cultured rice cells proliferated in the selection medium were mass-cultured in a conical beaker for approximately 1 month and then used for liquid culture in a pyroxasulfone-containing medium. When conducting liquid culture, the concentration was adjusted to 10^−7M or 10^−6M, so that pyroxasulfone would influence the fatty acid content in the cultured rice cells (Y. Tanetani et al., Pestic. Biochem. Physiol., 95, 47-55, 2009). […]
(§4) Fatty acid was extracted using undecenoic acid (C11:1) as an internal standard. As analytical standards, Supelco FAME mix containing C14:0, C16:0, C16:1, C18:0, C18:1, C18:2, C18:3, C20:0, C22:0, C22:1, and C24:0 and other fatty acid methyl esters (C11:1, C15:0, C20:1, and C26:0) were used, and calibration curves thereof were prepared, followed by quantification. […] Quantitative and qualitative analyses were carried out as methyl esters, although fatty acid methyl esters were converted into fatty acids at the time of quantitative analysis. […]

A further assay deals with ZmB6T8R4. Described as above. In kind it is cell-based, maize. The following applies: cultured rice cells with ZmB6T8R4 gene; 10^−7M or 10^−6M pyroxasulfone, liquid culture 14 to 17 days. On the procedure:
as §1, §2, §3, §4

The target of a further assay is T1, ZmM16901 (Zea mays, UniProt P12653).
T1 construct: expressed in transfected cells; host or cells: cultured rice cells (Agrobacterium EHA105, PalSelect R-4-GST)
Described as above. In kind it is cell-based, maize. The following applies: cultured rice cells with ZmM16901 gene; 10^−7M or 10^−6M pyroxasulfone, liquid culture 14 to 17 days. On the procedure:
as §1, §2, §3, §4

For a further assay, the system named is ZmY12862. The assay is described as above. The settings on record: cultured rice cells with ZmY12862 gene; 10^−7M or 10^−6M pyroxasulfone, liquid culture 14 to 17 days. The assay is classed as cell-based, maize. On the procedure:
as §1, §2, §3, §4

T1 sequence (P12653 whole entry): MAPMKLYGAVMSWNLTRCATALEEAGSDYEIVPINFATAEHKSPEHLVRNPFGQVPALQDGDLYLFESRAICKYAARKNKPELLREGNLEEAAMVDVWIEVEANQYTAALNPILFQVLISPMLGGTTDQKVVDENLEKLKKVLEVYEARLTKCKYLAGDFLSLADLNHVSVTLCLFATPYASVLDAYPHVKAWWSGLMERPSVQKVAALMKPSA

As to `Cn1nc(C(F)(F)F)c(CS(=O)(=O)C2=NOC(C)(C)C2)c1OC(F)F` [Pyroxasulfone, 3-[5-(difluoromethoxy)-1-methyl-3-(trifluoromethyl)pyrazol-4-ylmethylsulfonyl]-4,5-dihydro-5,5-dimethyl-1,2-oxazole], the “C15:0 (pentadecanoic acid) content” value in the assay on cultured rice cells is “remarkably increased”. For the same compound, the “content of very-long-chain fatty acid (VLCFA)” value with cultured rice cells is on record as “drastically decreases”. Moreover, the “pyroxasulfone concentration at which growth was substantially completely inhibited” value in assay [1] was at least 1 µM. The “growth of the wild-type Arabidopsis thaliana plant” value in assay [1] (pyroxasulfone 100 nM) is “inhibited to some extent”. The “pyroxasulfone metabolizing activity (C15:0 and VLCFA contents)” value with ZmQ9ZP61, in the assay on ZmB6T8R4, at ZmM16901 and in the assay on ZmY12862 was “no pyroxasulfone metabolizing activity” each time.

The record behind these values is patent US11198710B2, “Transgenic plant having herbicide resistance” (priority 2016, dated 2021).
